Calls of active or inactive are those of the source. No cut-off for these calls is given here.
Key:
HCT-116 [1] = test: Induction of autophagy in human HCT116 cells assessed as massive vacuole formation at 50 uM after 24 hrs by fluorescence microscopy; type: functional, cell-based
AGS [2] = test: Induction of apoptosis in human AGS cells assessed as increase in pJNK level at 100 uM after 24 hrs by Western blotting analysis in presence of bafilomycin A1; type: functional, cell-based
HCT-116 [3] = test: Induction of apoptosis in human HCT116 cells assessed as late apoptotic cells at 50 uM after 24 hrs by annexin V-FITC/propidium iodide staining-based flow cytometry (reference value: 2.71%); type: functional
HCT-116 [4] = test: Induction of apoptosis in human HCT116 cells assessed as cell rounding at >100 uM after 24 hrs by acridine orange staining-based microscopy; type: functional
HCT-116 [5] = test: Induction of apoptosis in human HCT116 cells assessed as formation of apoptotic bodies at >100 uM after 24 hrs by acridine orange staining-based microscopy; type: functional, cell-based
AGS [6] = test: Induction of autophagy in human AGS cells assessed as massive vacuole formation at 50 uM after 24 hrs by acridine orange staining-based fluorescence microscopy; type: functional, cell-based
AGS [7] = test: Induction of apoptosis in human AGS cells assessed as cell rounding at >100 uM after 24 hrs by acridine orange staining-based microscopy; type: functional
AGS [8] = test: Cell cycle arrest in human AGS cells assessed as accumulation at sub G1 phase at 200 uM after 24 hrs by propidium iodide staining-based flow cytometry; type: functional
HCT-116 [9] = test: Induction of apoptosis in human HCT116 cells assessed as early apoptotic cells at 50 uM after 24 hrs by annexin V-FITC/propidium iodide staining-based flow cytometry (reference value: 3.61%); type: functional
HCT-116 [10] = test: Induction of apoptosis in human HCT116 cells assessed as early apoptotic cells at 100 uM after 24 hrs by annexin V-FITC/propidium iodide staining-based flow cytometry (reference value: 3.61%); type: functional
AGS [11] = test: Induction of apoptosis in human AGS cells assessed as decrease in pERK level at 25 to 150 uM after 24 hrs by Western blotting analysis; type: functional, cell-based
AGS [12] = test: Cell cycle arrest in human AGS cells assessed as accumulation at sub G1 phase at 150 uM after 24 hrs by propidium iodide staining-based flow cytometry; type: functional
AGS [13] = test: Induction of apoptosis in human AGS cells assessed as caspase-8 activation at 25 to 150 uM after 24 hrs by Western blotting analysis; type: functional, cell-based
AGS [14] = test: Induction of apoptosis in human AGS cells assessed as reduction of caspase8 activation at 100 uM after 24 hrs by Western blotting analysis in presence of SP600125; type: functional, cell-based
AGS [15] = test: Cell cycle arrest in human AGS cells assessed as accumulation at sub G1 phase at 100 uM after 24 hrs by propidium iodide staining-based flow cytometry; type: functional
HCT-116 [16] = test: Induction of apoptosis in human HCT116 cells assessed as necrotic cells at 100 uM after 24 hrs by annexin V-FITC/propidium iodide staining-based flow cytometry (reference value: 0.68%); type: functional
AGS [17] = test: Induction of apoptosis in human AGS cells assessed as reduction of FasL level at 100 uM after 24 hrs by Western blotting analysis in presence of SP600125; type: functional, cell-based
AGS [18] = test: Induction of apoptosis in human AGS cells assessed as late apoptotic cells at 25 uM after 24 hrs by annexin V-FITC/propidium iodide staining-based flow cytometry (reference value: 7.3%); type: functional
AGS [19] = test: Induction of apoptosis in human AGS cells assessed as necrotic cells at 150 uM after 24 hrs by annexin V-FITC/propidium iodide staining-based flow cytometry (reference value: 0.12%); type: functional
AGS [20] = test: Induction of apoptosis in human AGS cells assessed as reduction of caspase3 activation at 100 uM after 24 hrs by Western blotting analysis in presence of bafilomycin A1; type: functional, cell-based
AGS [21] = test: Induction of apoptosis in human AGS cells assessed as late apoptotic cells at 100 uM after 24 hrs by annexin V-FITC/propidium iodide staining-based flow cytometry (reference value: 7.3%); type: functional
[22] = Cytotoxicity against human Chang cells after 24 hrs by MTT assay; type: cell-based
HCT-116 [23] = test: Induction of apoptosis in human HCT116 cells assessed as late apoptotic cells at 150 uM after 24 hrs by annexin V-FITC/propidium iodide staining-based flow cytometry (reference value: 2.71%); type: functional
AGS [24] = test: Induction of apoptosis in human AGS cells assessed as early apoptotic cells at 50 uM after 24 hrs by annexin V-FITC/propidium iodide staining-based flow cytometry (reference value: 6.6%); type: functional
AGS [25] = test: Induction of apoptosis in human AGS cells assessed as PARP-1 cleavage after 24 hrs by Western blotting analysis; type: functional, cell-based
HCT-116 [26] = test: Induction of autophagy in human HCT116 cells assessed as massive vacuole formation at 50 uM after 24 hrs by acridine orange staining-based fluorescence microscopy; type: functional, cell-based
AGS [27] = test: Induction of apoptosis in human AGS cells assessed as reduction of caspase8 activation at 100 uM after 24 hrs by Western blotting analysis in presence of SB202190; type: functional, cell-based
AGS [28] = test: Cell cycle arrest in human AGS cells assessed as accumulation at sub G1 phase at 100 uM after 24 hrs by propidium iodide staining-based flow cytometry in presence of bafilomycin A1; type: functional
HCT-116 [29] = test: Induction of apoptosis in human HCT116 cells assessed as membrane blebbing at >100 uM after 24 hrs by acridine orange staining-based microscopy; type: functional, cell-based
Mus musculus = test: Toxicity in BALB/c nude mouse xenografted with human HCT116 cells assessed as change in body weight at 40 mg/kg, ip administered 3 times a week for 5 weeks; type: organism-based, HCT-116; design: dose 40 mg/kg, route intraperitoneal; details: in vivo, 840 h
HCT-116 [30] = test: Induction of apoptosis in human HCT116 cells assessed as necrotic cells at 150 uM after 24 hrs by annexin V-FITC/propidium iodide staining-based flow cytometry (reference value: 0.68%); type: functional
HCT-116 [31] = test: Induction of apoptosis in human HCT116 cells assessed as late apoptotic cells at 25 uM after 24 hrs by annexin V-FITC/propidium iodide staining-based flow cytometry (reference value: 2.71%); type: functional
AGS [32] = test: Induction of autophagy in human AGS cells assessed as increase in LC3-2 level at 50 uM after 24 hrs by Western blotting analysis; type: functional, cell-based
AGS [33] = test: Induction of apoptosis in human AGS cells assessed as reduction of caspase8 activation at 100 uM after 24 hrs by Western blotting analysis in presence of bafilomycin A1; type: functional, cell-based
AGS [34] = test: Induction of apoptosis in human AGS cells assessed as early apoptotic cells at 25 uM after 24 hrs by annexin V-FITC/propidium iodide staining-based flow cytometry (reference value: 6.6%); type: functional
HCT-116 [35] = test: Induction of apoptosis in human HCT116 cells assessed as necrotic cells at 25 uM after 24 hrs by annexin V-FITC/propidium iodide staining-based flow cytometry (reference value: 0.68%); type: functional
AGS [36] = test: Induction of apoptosis in human AGS cells assessed as reduction of caspase3 activation at 100 uM after 24 hrs by Western blotting analysis in presence of SP600125; type: functional, cell-based
HCT-116 [37] = test: Cell cycle arrest in human HCT116 cells assessed as accumulation at sub G1 phase after 24 hrs by propidium iodide staining-based flow cytometry; type: functional

CC(C)=C[C@H]1C[C@](C)(O)[C@@H]2[C@H]3CC[C@@H]4[C@@]5(C)CC[C@H](O[C@@H]6OC[C@H](O)[C@H](O[C@@H]7O[C@H](CO)[C@@H](O)[C@H](O)[C@H]7O[C@@H]7OC[C@@H](O)[C@H](O)[C@H]7O)[C@H]6O[C@@H]6O[C@@H](C)[C@H](O)[C@@H](O)[C@H]6O)C(C)(C)[C@@H]5CC[C@@]4(C)[C@@]34CO[C@@]2(C4)O1
Activity (HCT-116 [1]): Active | Activity (AGS [2]): Active | Activity (HCT-116 [3]): 2.53% | Activity (HCT-116 [4]): Active | Activity (HCT-116 [5]): Active | Activity (AGS [6]): Active | Activity (AGS [7]): Active | Activity (AGS [8]): 49.65% | Activity (HCT-116 [9]): 6.65% | Activity (HCT-116 [10]): 37.59% | Activity (AGS [11]): inactive | Activity (AGS [12]): 21.73% | Activity (AGS [13]): Active | Activity (AGS [14]): inactive | Activity (AGS [15]): 8.29% | Activity (HCT-116 [16]): 3.05% | Activity (AGS [17]): inactive | Activity (AGS [18]): 5.24% | Activity (AGS [19]): 1.57% | Activity (AGS [20]): Active | Activity (AGS [21]): 12.44% | IC50 [22]: 182 µM | Activity (HCT-116 [23]): 17.9% | Activity (AGS [24]): 8.73% | Activity (AGS [25]): Dose-dependent effect | Activity (HCT-116 [26]): Active | Activity (AGS [27]): inactive | Activity (AGS [28]): Active | Activity (HCT-116 [29]): Active | Activity (Mus musculus): Non-toxic | Activity (HCT-116 [30]): 5.1% | Activity (HCT-116 [31]): 1.67% | Activity (AGS [32]): Active | Activity (AGS [33]): Active | Activity (AGS [34]): 5.57% | Activity (HCT-116 [35]): 0.67% | Activity (AGS [36]): inactive | Activity (HCT-116 [37]): Dose-dependent effect
